The text below walks through data of paper PMC6891286, “Towards the Development of an In vivo Chemical Probe for Cyclin G Associated Kinase (GAK)” (Molecules, 2019).

Series [1] can be described thus: pharmacokinetic profiling in mice, oral dosing. It counts as in vivo. As to conditions: C57BL/6 mice, 10 mg/kg po. The procedure: Pharmacokinetic profiling was performed by SAI Life Sciences (Hyderabad, India). […] Prior approval of the Institutional Animal Ethics Committee (IAEC) was obtained before initiation of the study. Healthy male C57BL/6 mice (8–12 weeks old) weighing between 20 and 35 g were procured from (Envigo Research Private Ltd., City, Hyderabad, India). Three mice were housed in each cage. […] Temperature and humidity were recorded by an automatically controlled data logger system. All animals were provided a laboratory rodent diet (Envigo Research Private Ltd., Hyderabad, India). Reverse osmosis water treated with ultraviolet light was provided ad libitum. Eighteen male mice were weighed and divided in to two groups (Group 1 and Group 2), with nine mice in each group. […] The dosing volume administered was 10 mL/kg for the oral route. […] Plasma samples were separated by centrifugation at 4000 rpm for 10 min and stored below −70 °C until bioanalysis. […] The plasma concentration-time data were then used for the pharmacokinetic analysis. A non-compartmental analysis module in Phoenix WinNonlin (Version 6.3, Certara USA Inc., Raleigh, NC, USA) was used to assess the pharmacokinetic parameters. Maximum concentration (Cmax) and time to reach the maximum concentration (Tmax) were the observed values. The areas under the concentration time curve (AUClast and AUCinf) were calculated by linear trapezoidal rule.

Another series addresses T1, ACVR2B (Homo sapiens, UniProt Q13705).
T1 construct: purchased Eurofins DiscoverX (KINOMEscan)
Briefly: KINOMEscan. It counts as binding. As to conditions: 35 at 1 µM; read-out: % inhibition. The procedure: (§1) KinomeScan Assay on 35 was performed as previously described at EuroFins DiscoverX (Fremont, CA, USA).

The next series concerns the target T2, ALK (Homo sapiens, UniProt Q9UM73).
T2 construct: purchased Eurofins DiscoverX (KINOMEscan)
Description: KINOMEscan. As to conditions: 35 at 1 µM; read-out: % inhibition. It counts as binding. The procedure:
as §1

The target in a further series is T3, AURKC (Homo sapiens, UniProt Q9UQB9).
T3 construct: purchased Eurofins DiscoverX (KINOMEscan)
Briefly: KINOMEscan. It counts as binding. As to conditions: 35 at 1 µM; read-out: % inhibition. The procedure: as §1

For another series, the target named is T4, CAMKK1 (Homo sapiens, UniProt Q8N5S9).
T4 construct: purchased Eurofins DiscoverX (KINOMEscan)
Description: KINOMEscan. It is filed as binding. The following applies: 35 at 1 µM; read-out: % inhibition. The method, then: as §1

The next series addresses T5, EPHA8 (Homo sapiens, UniProt P29322).
T5 construct: purchased Eurofins DiscoverX (KINOMEscan)
Briefly: KINOMEscan. It is filed as binding. The following applies: 35 at 1 µM; read-out: % inhibition. The method, then: as §1

The next series has as its target T6, ERK5 (Homo sapiens, UniProt Q13164).
T6 construct: purchased Eurofins DiscoverX (KINOMEscan)
Briefly: KINOMEscan. It is filed as binding. As to conditions: 35 at 1 µM; read-out: % inhibition. The procedure: as §1

In a further series the target is T7, ERK8 (Homo sapiens, UniProt Q8TD08).
T7 construct: purchased Eurofins DiscoverX (KINOMEscan)
Description: KINOMEscan. It is filed as binding. The following applies: 35 at 1 µM; read-out: % inhibition. The method, then:
as §1

A further series has as its target T8, FGFR2 (Homo sapiens, UniProt P21802).
T8 construct: purchased Eurofins DiscoverX (KINOMEscan)
Description: KINOMEscan. It is filed as binding. As to conditions: 35 at 1 µM; read-out: % inhibition. The procedure:
as §1

In the next series the target is T9, FGFR3(G697C) (Homo sapiens, UniProt P22607, G697C).
T9 construct: purchased Eurofins DiscoverX (KINOMEscan)
T9 sequence (P22607 23-806 G697C): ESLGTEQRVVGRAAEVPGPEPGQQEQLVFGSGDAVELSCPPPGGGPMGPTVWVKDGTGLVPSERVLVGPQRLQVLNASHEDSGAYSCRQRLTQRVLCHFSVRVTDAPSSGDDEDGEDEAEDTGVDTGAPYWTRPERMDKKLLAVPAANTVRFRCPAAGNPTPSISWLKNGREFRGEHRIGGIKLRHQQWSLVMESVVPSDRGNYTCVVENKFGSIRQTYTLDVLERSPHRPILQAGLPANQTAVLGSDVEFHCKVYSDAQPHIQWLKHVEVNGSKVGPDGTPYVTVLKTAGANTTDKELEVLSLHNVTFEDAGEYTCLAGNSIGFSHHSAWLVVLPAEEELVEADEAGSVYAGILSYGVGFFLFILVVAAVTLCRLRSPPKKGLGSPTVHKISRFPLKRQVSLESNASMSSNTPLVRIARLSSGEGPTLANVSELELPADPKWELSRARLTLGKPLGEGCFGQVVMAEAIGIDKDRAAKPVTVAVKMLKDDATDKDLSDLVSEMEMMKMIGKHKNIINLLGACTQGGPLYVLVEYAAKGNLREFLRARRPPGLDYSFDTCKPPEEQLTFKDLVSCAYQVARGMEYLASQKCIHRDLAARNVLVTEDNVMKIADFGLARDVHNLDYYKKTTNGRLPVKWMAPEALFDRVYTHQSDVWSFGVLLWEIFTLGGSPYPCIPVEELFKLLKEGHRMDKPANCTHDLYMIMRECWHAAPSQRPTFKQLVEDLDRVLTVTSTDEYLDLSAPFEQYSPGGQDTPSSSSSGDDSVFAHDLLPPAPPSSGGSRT
Briefly: KINOMEscan. It is filed as binding. As to conditions: 35 at 1 µM; read-out: % inhibition. The method, then:
as §1

A further series concerns the target T10, GSK3B (Homo sapiens, UniProt P49841).
T10 construct: purchased Eurofins DiscoverX (KINOMEscan)
Description: KINOMEscan. It counts as binding. The following applies: 35 at 1 µM; read-out: % inhibition. The procedure: as §1

The target of the next series is T11, HIPK3 (Homo sapiens, UniProt Q9H422).
T11 construct: purchased Eurofins DiscoverX (KINOMEscan)
Description: KINOMEscan. It is filed as binding. As to conditions: 35 at 1 µM; read-out: % inhibition. The method, then: as §1

Another series concerns the target T12, INSRR (Homo sapiens, UniProt P14616).
T12 construct: purchased Eurofins DiscoverX (KINOMEscan)
Briefly: KINOMEscan. It counts as binding. The following applies: 35 at 1 µM; read-out: % inhibition. The method, then:
as §1

Series [2] addresses T13, JAK2(JH1domain-catalytic) (Homo sapiens, UniProt O60674).
T13 construct: JAK2(JH1domain-catalytic); purchased Eurofins DiscoverX (KINOMEscan)
Briefly: KINOMEscan. It counts as binding. As to conditions: 35 at 1 µM; read-out: % inhibition. The procedure: as §1

Another series has as its target T14, LATS2 (Homo sapiens, UniProt Q9NRM7).
T14 construct: purchased Eurofins DiscoverX (KINOMEscan)
Description: KINOMEscan. It counts as binding. The following applies: 35 at 1 µM; read-out: % inhibition. The procedure: as §1

For another series, the target named is T15, LIMK1 (Homo sapiens, UniProt P53667).
T15 construct: purchased Eurofins DiscoverX (KINOMEscan)
Briefly: KINOMEscan. It is filed as binding. The following applies: 35 at 1 µM; read-out: % inhibition. The method, then:
as §1

Another series has as its target T16, MKNK1 (Homo sapiens, UniProt Q9BUB5).
T16 construct: purchased Eurofins DiscoverX (KINOMEscan)
Briefly: KINOMEscan. It is filed as binding. As to conditions: 35 at 1 µM; read-out: % inhibition. The procedure: as §1

For a further series, the target named is T17, MST4 (Homo sapiens, UniProt Q9P289).
T17 construct: purchased Eurofins DiscoverX (KINOMEscan)
Briefly: KINOMEscan. It is filed as binding. As to conditions: 35 at 1 µM; read-out: % inhibition. The method, then: as §1

The target in a further series is T18, NEK10 (Homo sapiens, UniProt Q6ZWH5).
T18 construct: purchased Eurofins DiscoverX (KINOMEscan)
Briefly: KINOMEscan. It is filed as binding. The following applies: 35 at 1 µM; read-out: % inhibition. The method, then: as §1

The target of the next series is T19, PAK2 (Homo sapiens, UniProt Q13177).
T19 construct: purchased Eurofins DiscoverX (KINOMEscan)
Description: KINOMEscan. It is filed as binding. As to conditions: 35 at 1 µM; read-out: % inhibition. The method, then: as §1

The target in another series is T20, PAK3 (Homo sapiens, UniProt O75914).
T20 construct: purchased Eurofins DiscoverX (KINOMEscan)
Briefly: KINOMEscan. It counts as binding. The following applies: 35 at 1 µM; read-out: % inhibition. The method, then:
as §1

The target in a further series is T21, PKAC-alpha (Homo sapiens, UniProt P17612).
T21 construct: purchased Eurofins DiscoverX (KINOMEscan)
Briefly: KINOMEscan. It is filed as binding. The following applies: 35 at 1 µM; read-out: % inhibition. The procedure:
as §1

Another series addresses T22, PLK3 (Homo sapiens, UniProt Q9H4B4).
T22 construct: purchased Eurofins DiscoverX (KINOMEscan)
Description: KINOMEscan. The following applies: 35 at 1 µM; read-out: % inhibition. It is filed as binding. The method, then: as §1

Series [3] has as its target T23, RPS6KA5(Kin.Dom.1-N-terminal) (Homo sapiens, UniProt O75582).
T23 construct: RPS6KA5(Kin.Dom.1-N-terminal); purchased Eurofins DiscoverX (KINOMEscan)
Briefly: KINOMEscan. The following applies: 35 at 1 µM; read-out: % inhibition. It counts as binding. The method, then:
as §1

The target in series [4] is T24, RSK2(Kin.Dom.1-N-terminal) (Homo sapiens, UniProt P51812).
T24 construct: RSK2(Kin.Dom.1-N-terminal); purchased Eurofins DiscoverX (KINOMEscan)
T24 sequence (P51812 68-397 limits assumed): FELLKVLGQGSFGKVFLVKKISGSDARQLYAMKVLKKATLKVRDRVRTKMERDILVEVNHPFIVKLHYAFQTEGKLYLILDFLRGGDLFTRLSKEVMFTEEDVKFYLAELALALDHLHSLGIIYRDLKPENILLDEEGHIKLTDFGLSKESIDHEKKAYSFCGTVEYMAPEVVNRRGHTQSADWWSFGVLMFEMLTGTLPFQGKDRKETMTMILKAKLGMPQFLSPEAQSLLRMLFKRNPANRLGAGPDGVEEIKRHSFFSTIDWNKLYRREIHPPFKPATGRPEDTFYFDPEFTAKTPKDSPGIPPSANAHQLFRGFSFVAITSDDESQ
Briefly: KINOMEscan. The following applies: 35 at 1 µM; read-out: % inhibition. It is filed as binding. The method, then: as §1

In the next series the target is T25, SGK3 (Homo sapiens, UniProt Q96BR1).
T25 construct: purchased Eurofins DiscoverX (KINOMEscan)
Description: KINOMEscan. It is filed as binding. As to conditions: 35 at 1 µM; read-out: % inhibition. The method, then: as §1

The target in another series is T26, STK35 (Homo sapiens, UniProt Q8TDR2).
T26 construct: purchased Eurofins DiscoverX (KINOMEscan)
Briefly: KINOMEscan. It counts as binding. As to conditions: 35 at 1 µM; read-out: % inhibition. The method, then:
as §1

In a further series the target is T27, TAOK2 (Homo sapiens, UniProt Q9UL54).
T27 construct: purchased Eurofins DiscoverX (KINOMEscan)
Briefly: KINOMEscan. It is filed as binding. As to conditions: 35 at 1 µM; read-out: % inhibition. The procedure:
as §1

Another series concerns the target T28, TEC (Homo sapiens, UniProt P42680).
T28 construct: purchased Eurofins DiscoverX (KINOMEscan)
Briefly: KINOMEscan. It is filed as binding. The following applies: 35 at 1 µM; read-out: % inhibition. The procedure: as §1

The next series has as its target T29, TLK1 (Homo sapiens, UniProt Q9UKI8).
T29 construct: purchased Eurofins DiscoverX (KINOMEscan)
Description: KINOMEscan. It is filed as binding. The following applies: 35 at 1 µM; read-out: % inhibition. The method, then: as §1

A further series deals with T30, VEGFR2 (Homo sapiens, UniProt P35968).
T30 construct: purchased Eurofins DiscoverX (KINOMEscan)
Briefly: KINOMEscan. It is filed as binding. The following applies: 35 at 1 µM; read-out: % inhibition. The procedure:
as §1

The target in the next series is T31, YANK2 (Homo sapiens, UniProt Q9NY57).
T31 construct: purchased EuroFins DiscoverX (Fremont, CA, USA)
T31 sequence (Q9NY57 whole entry): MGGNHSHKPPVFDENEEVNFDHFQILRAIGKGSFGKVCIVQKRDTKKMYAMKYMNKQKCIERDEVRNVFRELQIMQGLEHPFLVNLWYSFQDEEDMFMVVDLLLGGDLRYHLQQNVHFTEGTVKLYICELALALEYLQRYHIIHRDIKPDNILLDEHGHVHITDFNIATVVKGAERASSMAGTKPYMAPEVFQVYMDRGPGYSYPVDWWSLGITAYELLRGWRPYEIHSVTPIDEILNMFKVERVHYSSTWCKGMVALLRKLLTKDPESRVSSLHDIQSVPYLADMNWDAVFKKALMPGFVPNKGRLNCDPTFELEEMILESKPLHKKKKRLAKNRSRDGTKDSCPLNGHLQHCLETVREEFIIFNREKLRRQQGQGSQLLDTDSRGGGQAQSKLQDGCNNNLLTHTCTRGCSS
Briefly: KINOMEscan. It counts as binding. As to conditions: 35 at 1 µM; read-out: % inhibition. The method, then: as §1

The mark [5] stands for this setting: male, C57BL/6, mouse, plasma, po, 10 mg/kg, 2 h pretreat 50 mpk ABT.
The mark [6] stands for this setting: male, C57BL/6, mouse, plasma, po, 10 mg/kg, without ABT.

SMILES strings stand for the structures. Some results are limits rather than exact numbers.

As usually defined, the AUC(0-inf) is total exposure, with the tail of the curve extrapolated. As a reminder, the Tmax is the time at which the peak concentration occurs. One may read the Cmax as the highest concentration seen after dosing.

T28 sequence (P42680 whole entry): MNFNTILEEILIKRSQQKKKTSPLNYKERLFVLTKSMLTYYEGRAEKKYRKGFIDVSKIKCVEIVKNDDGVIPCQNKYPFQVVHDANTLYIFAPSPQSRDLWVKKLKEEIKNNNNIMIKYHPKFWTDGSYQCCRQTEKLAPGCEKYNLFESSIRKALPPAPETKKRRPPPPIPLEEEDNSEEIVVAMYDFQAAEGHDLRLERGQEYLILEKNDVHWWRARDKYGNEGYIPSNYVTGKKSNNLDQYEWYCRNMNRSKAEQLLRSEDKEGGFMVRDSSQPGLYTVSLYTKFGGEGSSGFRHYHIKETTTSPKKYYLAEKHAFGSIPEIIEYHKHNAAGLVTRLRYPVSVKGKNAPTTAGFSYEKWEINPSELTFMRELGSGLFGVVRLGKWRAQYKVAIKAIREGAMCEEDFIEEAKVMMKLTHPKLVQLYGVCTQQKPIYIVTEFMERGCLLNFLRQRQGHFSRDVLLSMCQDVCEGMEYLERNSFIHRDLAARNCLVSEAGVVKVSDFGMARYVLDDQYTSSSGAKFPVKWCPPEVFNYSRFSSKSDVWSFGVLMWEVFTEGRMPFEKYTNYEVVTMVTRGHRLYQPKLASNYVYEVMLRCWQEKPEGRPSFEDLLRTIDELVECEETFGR
T29 sequence (Q9UKI8 whole entry): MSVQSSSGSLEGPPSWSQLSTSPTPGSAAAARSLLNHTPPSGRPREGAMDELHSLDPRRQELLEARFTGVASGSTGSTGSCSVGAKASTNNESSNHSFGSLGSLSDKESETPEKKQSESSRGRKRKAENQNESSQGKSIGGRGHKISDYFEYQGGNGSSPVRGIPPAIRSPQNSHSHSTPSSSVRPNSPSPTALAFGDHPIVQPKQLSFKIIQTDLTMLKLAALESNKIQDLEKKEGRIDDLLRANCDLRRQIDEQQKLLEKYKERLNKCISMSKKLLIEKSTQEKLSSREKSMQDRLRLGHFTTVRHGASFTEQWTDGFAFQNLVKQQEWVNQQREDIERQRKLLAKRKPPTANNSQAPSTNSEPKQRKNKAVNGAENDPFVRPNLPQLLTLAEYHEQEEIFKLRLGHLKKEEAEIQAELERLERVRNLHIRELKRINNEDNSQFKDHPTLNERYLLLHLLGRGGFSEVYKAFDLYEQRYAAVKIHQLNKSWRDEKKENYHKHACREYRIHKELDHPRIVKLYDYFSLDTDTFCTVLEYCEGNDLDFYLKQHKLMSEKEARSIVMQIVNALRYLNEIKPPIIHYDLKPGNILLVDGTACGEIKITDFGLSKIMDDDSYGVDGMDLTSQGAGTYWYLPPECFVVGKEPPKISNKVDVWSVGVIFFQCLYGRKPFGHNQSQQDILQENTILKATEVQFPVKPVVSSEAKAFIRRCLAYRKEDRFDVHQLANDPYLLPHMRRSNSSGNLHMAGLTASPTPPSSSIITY
T12 sequence (P14616 27-1297): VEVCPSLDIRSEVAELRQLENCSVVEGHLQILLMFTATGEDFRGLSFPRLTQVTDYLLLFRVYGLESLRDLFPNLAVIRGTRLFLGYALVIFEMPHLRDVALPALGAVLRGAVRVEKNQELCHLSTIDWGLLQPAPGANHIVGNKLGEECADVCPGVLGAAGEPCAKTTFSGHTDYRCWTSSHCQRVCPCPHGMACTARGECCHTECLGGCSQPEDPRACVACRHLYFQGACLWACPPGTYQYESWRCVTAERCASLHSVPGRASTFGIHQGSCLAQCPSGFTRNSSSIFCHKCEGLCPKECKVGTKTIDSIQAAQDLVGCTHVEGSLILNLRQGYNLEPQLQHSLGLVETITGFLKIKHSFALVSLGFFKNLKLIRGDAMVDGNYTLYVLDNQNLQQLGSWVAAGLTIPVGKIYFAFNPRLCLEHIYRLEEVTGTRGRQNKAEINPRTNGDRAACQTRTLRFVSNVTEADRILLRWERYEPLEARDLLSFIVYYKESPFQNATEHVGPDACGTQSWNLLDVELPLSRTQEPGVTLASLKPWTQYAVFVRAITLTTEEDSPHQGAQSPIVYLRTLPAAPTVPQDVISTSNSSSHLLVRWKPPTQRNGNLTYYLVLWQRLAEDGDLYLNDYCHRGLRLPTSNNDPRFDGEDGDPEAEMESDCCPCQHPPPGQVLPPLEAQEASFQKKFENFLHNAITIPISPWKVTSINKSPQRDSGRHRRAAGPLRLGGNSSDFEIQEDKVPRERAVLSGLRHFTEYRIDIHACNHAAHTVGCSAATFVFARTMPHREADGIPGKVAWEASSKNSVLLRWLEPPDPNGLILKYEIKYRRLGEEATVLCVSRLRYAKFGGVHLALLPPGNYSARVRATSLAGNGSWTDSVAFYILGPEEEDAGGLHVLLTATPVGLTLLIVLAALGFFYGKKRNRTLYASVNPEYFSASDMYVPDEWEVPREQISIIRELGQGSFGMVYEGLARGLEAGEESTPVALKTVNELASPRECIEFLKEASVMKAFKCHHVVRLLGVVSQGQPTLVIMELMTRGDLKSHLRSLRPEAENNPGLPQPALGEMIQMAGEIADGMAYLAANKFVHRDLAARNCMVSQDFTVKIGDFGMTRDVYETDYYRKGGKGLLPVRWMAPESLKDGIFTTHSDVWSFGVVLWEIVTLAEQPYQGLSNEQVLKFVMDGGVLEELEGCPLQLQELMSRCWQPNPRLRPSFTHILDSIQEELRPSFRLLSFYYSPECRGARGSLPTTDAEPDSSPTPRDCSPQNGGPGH
T6 sequence (Q13164 whole entry): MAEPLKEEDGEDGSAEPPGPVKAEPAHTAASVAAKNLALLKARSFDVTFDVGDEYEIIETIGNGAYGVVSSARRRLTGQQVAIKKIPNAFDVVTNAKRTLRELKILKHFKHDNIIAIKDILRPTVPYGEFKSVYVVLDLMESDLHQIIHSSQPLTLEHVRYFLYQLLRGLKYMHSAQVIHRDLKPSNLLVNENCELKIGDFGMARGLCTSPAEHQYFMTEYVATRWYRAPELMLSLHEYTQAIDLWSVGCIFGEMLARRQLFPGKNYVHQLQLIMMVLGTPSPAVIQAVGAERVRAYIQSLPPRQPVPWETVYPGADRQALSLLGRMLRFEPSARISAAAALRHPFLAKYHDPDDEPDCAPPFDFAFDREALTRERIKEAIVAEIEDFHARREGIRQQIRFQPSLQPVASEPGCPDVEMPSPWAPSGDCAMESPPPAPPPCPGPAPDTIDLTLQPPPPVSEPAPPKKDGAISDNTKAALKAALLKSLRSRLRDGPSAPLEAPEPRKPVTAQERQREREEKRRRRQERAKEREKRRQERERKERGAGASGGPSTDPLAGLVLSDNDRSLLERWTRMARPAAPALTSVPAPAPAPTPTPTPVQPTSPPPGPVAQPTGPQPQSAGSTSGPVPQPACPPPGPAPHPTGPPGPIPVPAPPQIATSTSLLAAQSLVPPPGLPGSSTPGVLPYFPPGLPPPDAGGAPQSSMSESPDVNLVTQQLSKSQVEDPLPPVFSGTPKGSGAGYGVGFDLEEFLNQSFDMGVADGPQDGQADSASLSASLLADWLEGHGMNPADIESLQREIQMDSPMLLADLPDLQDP

Consider `COc1cc2nccc(Nc3cc(OC)c(OC)c(OC)c3)c2cc1OC` [Compound 8], for which, in series [1] (2 h pre-treatment with 50 mg/kg ABT vs without), the “fold higher exposure with ABT pretreatment” value is listed as 8 fold. Besides, the “time plasma concentration sustained at 2-fold above the cellular IC50” value in series [1] (pretreatment with ABT) is > 8 h. The total exposure AUC(0-inf) in series [1] (setting [5]) came out at 569 ng·h/mL; in series [1] (setting [6]) it was 71 ng·h/mL. For the same compound, the Tmax in [1] (setting [5]) was 2 h; in [1] (setting [6]), 1 h. In addition, in series [1] (male, C57BL/6, mouse, plasma, po, 10 mg/kg, 2 h pretreat 50 mpk ABT, read-out: Cmax), the Cmax is 107 ng/mL. The half-life in series [1] (male, mouse, plasma, without ABT, read-out: T1/2 in mice) is < 1 h.

`Brc1ccc2nccc(Nc3ccc4cn[nH]c4c3)c2c1` [Compound 35, 6-Bromo-N-(1H-indazol-6-yl)quinolin-4-amine]: the activity at 1 µM worked out at 36% on ACVR2B; 100% at ALK; 100% at AURKC; 100% at CAMKK1; 100% on EPHA8; 100% on ERK5. The activity at 1 µM on ERK8 worked out at 100%; at FGFR2, 100%; on FGFR3(G697C), 100%; on GSK3B it was 97%; on HIPK3, 87%; on INSRR it was 100%. Further, the activity at 1 µM in series [2] is 98%; at LATS2, 88%; at LIMK1 it was 100%; at MKNK1, 79%; on MST4, 100%; at NEK10, 100%. Besides, the activity at 1 µM on PAK2 is 85%; at PAK3, 100%; at PKAC-alpha it was 98%; on PLK3 it was 100%; in series [3], 100%; in [4], 90%. For the same compound, the activity at 1 µM amounted to 100% at SGK3; 100% on STK35; 91% at TAOK2; 100% at TEC; 95% at TLK1; 100% at VEGFR2. Moreover, at YANK2, the activity at 1 µM is 100%.
